Test results: patent US9351974B2, “Substituted pteridinones for the treatment of cancer” (OSI Pharmaceuticals, LLC, priority 2011, dated 2016)

Target: T1, His-tagged full-length RSK2 (RPS6KA3) (Homo sapiens, UniProt P51812)
T1 construct: His-tagged full-length RSK2 (RPS6KA3, Invitrogen PV3323); His; purchased Invitrogen PV3323
Experiment: RSK2 Omnia Assay for compound IC50 determination
Format: biochemical
Conditions: ATP 15 μM, n=2, read-out: Mean RSK2 Biochem IC50
Summary of the method: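 Continuous fluorescence assay (ex 360/em 485 nm) of SOX-peptide (Omnia ST Peptide 6, 5 μM) phosphorylation with ATP 15 μM (Km 16.3 μM). Enzyme was […], in pH 7.5 HEPES/MgCl2 buffer with 1% DMSO. IC50 came from 11-point threefold dilutions ([…]) by four-parameter fit of initial slopes, in duplicate; Ki by Cheng-Prusoff assuming competitive inhibition.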

T1 sequence (P51812 whole entry): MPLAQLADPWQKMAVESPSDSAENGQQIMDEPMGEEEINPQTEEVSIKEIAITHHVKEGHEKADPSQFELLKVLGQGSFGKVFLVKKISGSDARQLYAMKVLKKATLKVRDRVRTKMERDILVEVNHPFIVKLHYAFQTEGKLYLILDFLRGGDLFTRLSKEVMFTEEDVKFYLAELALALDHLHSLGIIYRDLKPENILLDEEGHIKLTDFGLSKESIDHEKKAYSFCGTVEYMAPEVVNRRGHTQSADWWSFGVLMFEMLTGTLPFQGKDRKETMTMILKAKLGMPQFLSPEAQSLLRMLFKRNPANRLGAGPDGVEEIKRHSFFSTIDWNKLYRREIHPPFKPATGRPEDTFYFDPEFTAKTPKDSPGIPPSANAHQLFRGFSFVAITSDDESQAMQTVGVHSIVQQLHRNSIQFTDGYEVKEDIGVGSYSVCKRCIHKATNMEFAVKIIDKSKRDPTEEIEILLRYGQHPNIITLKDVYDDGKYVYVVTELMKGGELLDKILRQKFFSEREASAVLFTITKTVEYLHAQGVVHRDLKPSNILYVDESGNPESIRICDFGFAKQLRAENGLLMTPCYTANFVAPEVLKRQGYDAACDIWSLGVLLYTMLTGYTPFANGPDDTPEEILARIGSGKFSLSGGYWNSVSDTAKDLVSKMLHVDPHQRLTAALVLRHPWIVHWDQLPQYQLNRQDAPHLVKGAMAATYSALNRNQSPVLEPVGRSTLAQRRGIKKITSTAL

Question: For COc1ccc(N2C(=O)[C@@H](C)N(C3CCCCC3)c3nc(Nc4ccc5[nH]ncc5c4)ncc32)cc1C#N [compound 104, 5-[(7R)-8-cyclohexyl-2-(1H-indazol-5-ylamino)-7-methyl-6-oxo-7,8-dihydropteridin-5(6H)-yl]-2-methoxybenzonitrile], which IC50 is on record?
Answer: ≤ 100 nM

Question: For COc1ccc(N2C(=O)[C@@H](C)N([C@H]3CC[C@@H](C(F)(F)F)CC3)c3nc(Nc4cc(F)c5[nH]ncc5c4)ncc32)cc1OC [compound 257, (7R)-5-(3,4-dimethoxyphenyl)-2-[(7-fluoro-1H-indazol-5-yl)amino]-7-methyl-8-[cis-4-(trifluoromethyl)cyclohexyl]-7,8-dihydropteridin-6(5H)-one], which IC50 is on record?
Answer: ≤ 100 nM

Question: C[C@@H]1C(=O)N(c2cccc(C#N)c2)c2cnc(Nc3cc(F)c4[nH]ncc4c3)nc2N1C1CCC(C)(C)CC1 [Example 209, 3-[(7R)-8-(4,4-dimethylcyclohexyl)-2-[(7-fluoro-1H-indazol-5-yl)amino]-7-methyl-6-oxo-7,8-dihydropteridin-5(6H)-yl]benzonitrile] was tested. Which IC50 did it give?
Answer: ≤ 100 nM

Question: COC(=O)c1ccc(N2C(=O)[C@@H](C)N(C3CCCCC3)c3nc(Nc4ccc5[nH]ncc5c4)ncc32)cc1 [Example 52, methyl 4-[(7R)-8-cyclohexyl-2-(1H-indazol-5-ylamino)-7-methyl-6-oxo-7,8-dihydropteridin-5(6H)-yl]benzoate] was tested. Which IC50 did it give?
Answer: ≤ 100 nM

Question: Which IC50 does the source give for N#Cc1cccc(N2C(=O)[C@@H](CO)N(C3CCCC3)c3nc(Nc4cc(F)c5[nH]ncc5c4)ncc32)c1 [Example 218, 3-[(7R)-8-cyclopentyl-2-[(7-fluoro-1H-indazol-5-yl)amino]-7-(hydroxymethyl)-6-oxo-7,8-dihydropteridin-5(6H)-yl]benzonitrile] here?
Answer: ≤ 100 nM

Question: For C[C@@H]1C(=O)N(c2cccc(C#N)c2)c2cnc(Nc3cc(F)c(O)c(F)c3)nc2N1C1CCC(F)(F)CC1 [compound 276, 3-[(7R)-8-(4,4-difluorocyclohexyl)-2-[(3,5-difluoro-4-hydroxyphenyl)amino]-7-methyl-6-oxo-7,8-dihydropteridin-5(6H)-yl]benzonitrile], which IC50 is on record?
Answer: ≤ 100 nM

Question: How did the IC50 turn out when C[C@@H]1C(=O)N(c2cccc(CO)c2)c2cnc(Nc3ccc4[nH]ncc4c3)nc2N1C1CCCCC1 [compound 127, (7R)-8-cyclohexyl-5-[3-(hydroxymethyl)phenyl]-2-(1H-indazol-5-ylamino)-7-methyl-7,8-dihydropteridin-6(5H)-one] was run?
Answer: ≤ 100 nM

Question: Which IC50 does the source give for COc1ccc(N2C(=O)[C@@H](C)N(C3CCCCC3)c3nc(Nc4cc(F)c5[nH]ncc5c4)ncc32)cc1C#N [compound 136, 5-[(7R)-8-cyclohexyl-2-[(7-fluoro-1H-indazol-5-yl)amino]-7-methyl-6-oxo-7,8-dihydropteridin-5(6H)-yl]-2-methoxybenzonitrile] here?
Answer: ≤ 100 nM

Question: For C[C@H]1C(=O)N(c2ccccc2)c2cnc(Nc3ccc4[nH]ncc4c3)nc2N1C1CCCCC1 [Example 62, (7S)-8-cyclohexyl-2-(1H-indazol-5-ylamino)-7-methyl-5-phenyl-7,8-dihydropteridin-6(5H)-one], which IC50 is on record?
Answer: 100 to 1000 nM

Question: With CC(C)Oc1ccc(N2C(=O)[C@@H](C)N(C3CCC(F)(F)CC3)c3nc(Nc4cc(F)c5[nH]c(=O)oc5c4)ncc32)cc1C#N [compound 278, 5-[(7R)-8-(4,4-difluorocyclohexyl)-2-[(4-fluoro-2-oxo-2,3-dihydro-1,3-benzoxazol-6-yl)amino]-7-methyl-6-oxo-7,8-dihydropteridin-5(6H)-yl]-2-(propan-2-yloxy)benzonitrile] as the compound, how does the IC50 read?
Answer: ≤ 100 nM

Question: N#Cc1cccc(N2C(=O)[C@@H](CF)N(C3CCCC3)c3nc(Nc4ccc5[nH]ncc5c4)ncc32)c1 [Example 222, 3-[(7S)-8-cyclopentyl-7-(fluoromethyl)-2-(1H-indazol-5-ylamino)-6-oxo-7,8-dihydropteridin-5(6H)-yl]benzonitrile] was tested. Which IC50 did it give?
Answer: ≤ 100 nM

Question: With CC(C)Oc1ccc(N2C(=O)[C@@H](C)N(C3CCOCC3)c3nc(Nc4cc(F)c5[nH]ncc5c4)ncc32)cc1C#N [compound 196, 5-[(7R)-2-[(7-fluoro-1H-indazol-5-yl)amino]-7-methyl-6-oxo-8-(tetrahydro-2H-pyran-4-yl)-7,8-dihydropteridin-5(6H)-yl]-2-(propan-2-yloxy)benzonitrile] as the compound, how does the IC50 read?
Answer: ≤ 100 nM

Question: For COc1ccc(N2C(=O)[C@@H](C)N(C3CCOCC3)c3nc(Nc4cc(F)c5[nH]ncc5c4)ncc32)cc1C#N [compound 190, 5-[(7R)-2-[(7-fluoro-1H-indazol-5-yl)amino]-7-methyl-6-oxo-8-(tetrahydro-2H-pyran-4-yl)-7,8-dihydropteridin-5(6H)-yl]-2-methoxybenzonitrile], which IC50 is on record?
Answer: ≤ 100 nM

Question: C[C@@H]1C(=O)N(c2cccc(C#N)c2)c2cnc(Nc3ccc4[nH]ncc4c3)nc2N1C1CCC(C)(C)CC1 [Example 207, 3-[(7R)-8-(4,4-dimethylcyclohexyl)-2-(1H-indazol-5-ylamino)-7-methyl-6-oxo-7,8-dihydropteridin-5(6H)-yl]benzonitrile] was tested. Which IC50 did it give?
Answer: ≤ 100 nM

Question: Which IC50 does the source give for COc1cccc(N2C(=O)[C@@H](C)N(C3CCCCC3)c3nc(Nc4ccc5[nH]ncc5c4)ncc32)c1 [Example 28, (7R)-8-cyclohexyl-2-(1H-indazol-5-ylamino)-5-(3-methoxyphenyl)-7-methyl-7,8-dihydropteridin-6(5H)-one] here?
Answer: ≤ 100 nM

Question: How did the IC50 turn out when C[C@@H]1C(=O)N(c2cncc(C#N)c2)c2cnc(Nc3ccc4[nH]ncc4c3)nc2N1C1CCCCC1 [compound 128, 5-[(7R)-8-cyclohexyl-2-(1H-indazol-5-ylamino)-7-methyl-6-oxo-7,8-dihydropteridin-5(6H)-yl]pyridine-3-carbonitrile] was run?
Answer: ≤ 100 nM

Question: For CC(C)CCN1c2nc(Nc3ccc4[nH]ncc4c3)ncc2N(c2ccccc2)C(=O)C1C (centres unmarked) [Example 1, 2-(1H-indazol-5-ylamino)-7-methyl-8-(3-methylbutyl)-5-phenyl-7,8-dihydropteridin-6(5H)-one], which IC50 is on record?
Answer: ≤ 100 nM

Question: For C[C@@H]1C(=O)N(c2ccc3ccccc3c2)c2cnc(Nc3ccc4[nH]ncc4c3)nc2N1C1CCCCC1 [Example 45, (7R)-8-cyclohexyl-2-(1H-indazol-5-ylamino)-7-methyl-5-(naphthalen-2-yl)-7,8-dihydropteridin-6(5H)-one], which IC50 is on record?
Answer: ≤ 100 nM

Question: C[C@@H]1C(=O)N(c2cccc(C#N)c2)c2cnc(Nc3ccccc3)nc2N1C1CCCCC1 [compound 156, 3-[(7R)-8-cyclohexyl-7-methyl-6-oxo-2-(phenylamino)-7,8-dihydropteridin-5(6H)-yl]benzonitrile] was tested. Which IC50 did it give?
Answer: 100 to 1000 nM

Question: Which IC50 does the source give for C[C@@H]1C(=O)N(c2ccc(N3CCN(C)CC3)nc2)c2cnc(Nc3cc(F)c4[nH]ncc4c3)nc2N1[C@H]1CC[C@H](C)CC1 [compound 242, (7R)-2-[(7-fluoro-1H-indazol-5-yl)amino]-7-methyl-8-(trans-4-methylcyclohexyl)-5-[6-(4-methylpiperazin-1-yl)pyridin-3-yl]-7,8-dihydropteridin-6(5H)-one] here?
Answer: ≤ 100 nM

Question: Which IC50 does the source give for C[C@@H]1C(=O)N(c2cccc(C#N)c2)c2cnc(Nc3ccc4[nH]ncc4c3F)nc2N1C1CCOCC1 [compound 185, 3-[(7R)-2-[(4-fluoro-1H-indazol-5-yl)amino]-7-methyl-6-oxo-8-(tetrahydro-2H-pyran-4-yl)-7,8-dihydropteridin-5(6H)-yl]benzonitrile] here?
Answer: ≤ 100 nM

Question: CC[C@@H]1C(=O)N(c2cccc(C#N)c2)c2cnc(Nc3ccc4[nH]nc(F)c4c3)nc2N1C1CCCCC1 [compound 295, 3-[(7R)-8-cyclohexyl-7-ethyl-2-[(3-fluoro-1H-indazol-5-yl)amino]-6-oxo-7,8-dihydropteridin-5(6H)-yl]benzonitrile] was tested. Which IC50 did it give?
Answer: ≤ 100 nM

Question: C[C@@H]1C(=O)N(c2cccnc2)c2cnc(Nc3cc(F)c4[nH]ncc4c3)nc2N1[C@H]1CC[C@@H](C)CC1 [compound 240, (7R)-2-[(7-fluoro-1H-indazol-5-yl)amino]-7-methyl-8-(cis-4-methylcyclohexyl)-5-(pyridin-3-yl)-7,8-dihydropteridin-6(5H)-one] was tested. Which IC50 did it give?
Answer: ≤ 100 nM

Question: Which IC50 does the source give for C[C@@H]1C(=O)N(c2cccc(C#N)c2)c2cnc(Nc3cc(F)c4[nH]ncc4c3)nc2N1C1CCOCC1 [compound 186, 3-[(7R)-2-[(7-fluoro-1H-indazol-5-yl)amino]-7-methyl-6-oxo-8-(tetrahydro-2H-pyran-4-yl)-7,8-dihydropteridin-5(6H)-yl]benzonitrile] here?
Answer: ≤ 100 nM

Question: How did the IC50 turn out when C[C@@H]1C(=O)N(c2cccc(C#N)c2)c2cnc(Nc3cc(F)c4[nH]nc(F)c4c3F)nc2N1C1CCCCC1 [compound 146, 3-[(7R)-8-cyclohexyl-7-methyl-6-oxo-2-[(3,4,7-trifluoro-1H-indazol-5-yl)amino]-7,8-dihydropteridin-5(6H)-yl]benzonitrile] was run?
Answer: ≤ 100 nM

Question: How did the IC50 turn out when COc1cc(N2C(=O)[C@@H](C)N(C3CCCCC3)c3nc(Nc4ccc5[nH]ncc5c4)ncc32)ccc1F [Example 54, (7R)-8-cyclohexyl-5-(4-fluoro-3-methoxyphenyl)-2-(1H-indazol-5-ylamino)-7-methyl-7,8-dihydropteridin-6(5H)-one] was run?
Answer: ≤ 100 nM

Question: How did the IC50 turn out when COc1ccc(N2C(=O)[C@@H](C)N(C3CCCCC3)c3nc(Nc4ccc5[nH]ncc5c4)ncc32)cc1F [Example 55, (7R)-8-cyclohexyl-5-(3-fluoro-4-methoxyphenyl)-2-(1H-indazol-5-ylamino)-7-methyl-7,8-dihydropteridin-6(5H)-one] was run?
Answer: ≤ 100 nM

Question: How did the IC50 turn out when CC1C(=O)N(c2ccccc2)c2cnc(Nc3ccc4c(c3)CC(=O)N4)nc2N1c1ccccc1 (centres unmarked) [compound 179] was run?
Answer: 100 to 1000 nM

Question: For C[C@@H]1C(=O)N(c2ccc(F)c(C#N)c2)c2cnc(Nc3ccc4[nH]ncc4c3)nc2N1C1CCCCC1 [compound 96, 5-[(7R)-8-cyclohexyl-2-(1H-indazol-5-ylamino)-7-methyl-6-oxo-7,8-dihydropteridin-5(6H)-yl]-2-fluorobenzonitrile], which IC50 is on record?
Answer: ≤ 100 nM
